Measured values taken from patent US4753953A, “Pyridonecarboxylic acid derivatives and antibacterial pharmaceutical compositions thereof” (priority 1985, dated 1988).
In brackets after ≈: the same amount, converted by molar mass. Like-named read-outs stand apart in the source and are kept apart here.

Assays:
[1] = tested on: Citrobacter freundii IID 976; test: MIC, in vitro antibacterial activity (standard strains); format: cell-based; conditions: Citrobacter freundii, IID976
P. cepacia GIFU 518 = test: as above; format: cell-based; conditions: Burkholderia cepacia, GIFU518
B. fragilis 0558 = test: as above; format: cell-based, Bacteroides fragilis; conditions: Bacteroides fragilis, 0558; 10^6 cells/ml; Gram -; read-out: MIC
K. pneumoniae 1-220S = test: as above; format: cell-based, Klebsiella pneumoniae; conditions: Klebsiella pneumoniae, 1220S; 10^6 cells/ml; Gram -; read-out: MIC
P. aeruginosa IFO 12689 = test: as above; format: cell-based, Pseudomonas aeruginosa; conditions: Pseudomonas aeruginosa, IFO12689; 10^6 cells/ml; Gram -; read-out: MIC
P. aeruginosa IID 1210 = test: as above; format: cell-based, Pseudomonas aeruginosa; conditions: Pseudomonas aeruginosa, IID1210; 10^6 cells/ml; Gram -; read-out: MIC
[2] = tested on: Enterobacter cloacae IID 977; test: as above; format: cell-based; conditions: Enterobacter cloacae, IID977; 10^6 cells/ml; Gram -; read-out: MIC
S. aureus Smith = test: as above; format: cell-based, Staphylococcus aureus; conditions: Staphylococcus aureus; 10^6 cells/ml; Gram +; read-out: MIC
E. coli ML 4707 = test: as above; format: cell-based, Escherichia coli; conditions: Escherichia coli, read-out: MIC
[3] = tested on: Fusobacterium mortiferum 4249; test: as above; format: cell-based; conditions: Fusobacterium mortiferum, 4249; 10^6 cells/ml; Gram -; read-out: MIC
[4] = tested on: Eubacterium lentum GAI 5242; test: as above; format: cell-based; conditions: Eggerthella lenta, GAI5242; 10^6 cells/ml; Gram +; read-out: MIC
B. fragilis 25285 = test: as above; format: cell-based, Bacteroides fragilis; conditions: Bacteroides fragilis, 25285; 10^6 cells/ml; Gram -; read-out: MIC
[5] = tested on: Alcaligenes faecalis 0114002; test: as above; format: cell-based; conditions: Alcaligenes faecalis, 0114002; 10^6 cells/ml; Gram -; read-out: MIC
E. faecalis IID 682 = test: as above; format: cell-based; conditions: Enterococcus faecalis, IID682; 10^6 cells/ml; Gram +; read-out: MIC
F. necrophorum S-45 = test: as above; format: cell-based; conditions: Fusobacterium necrophorum, S45; 10^6 cells/ml; Gram -; read-out: MIC
[6] = tested on: Morganella morganii IID 602; test: as above; format: cell-based; conditions: Morganella morganii, IID602; 10^6 cells/ml; Gram -; read-out: MIC
Pst. micros UPI 5464-1 = test: as above; format: cell-based; conditions: Parvimonas micra, UPI54641; 10^6 cells/ml; Gram +; read-out: MIC
[7] = tested on: Yersinia enterocolitica IID 981; test: as above; format: cell-based; conditions: Yersinia enterocolitica, IID981; 10^6 cells/ml; Gram -; read-out: MIC
[8] = tested on: Peptostreptococcus anaerobius KYA 27337; test: as above; format: cell-based; conditions: Peptostreptococcus anaerobius, KYA27337; 10^6 cells/ml; Gram +; read-out: MIC
[9] = tested on: Streptococcus pyogenes (S-8); test: as above; format: cell-based; conditions: Streptococcus pyogenes; 10^6 cells/ml; Gram +; read-out: MIC
E. coli ATCC 10536 = test: as above; format: cell-based, Escherichia coli; conditions: Escherichia coli, ATCC10536; 10^6 cells/ml; Gram -; read-out: MIC
[10] = tested on: Veillonella parvula KYA 10790; test: as above; format: cell-based; conditions: Veillonella parvula, KYA10790; 10^6 cells/ml; Gram -; read-out: MIC
C. perfringens KYA 13123 = test: microbe, parasite or virus in culture; format: cell-based; conditions: Clostridium perfringens, KYA13123
[11] = tested on: B. thetaiotaomicron (0661); test: MIC, in vitro antibacterial activity (standard strains); format: cell-based; conditions: Bacteroides thetaiotaomicron; 10^6 cells/ml; Gram -; read-out: MIC
S. pyogenes IID 692 = test: as above; format: cell-based, Streptococcus pyogenes; conditions: Streptococcus pyogenes, IID692; 10^6 cells/ml; Gram +; read-out: MIC
[12] = tested on: Peptococcus magnus KY 017; test: as above; format: cell-based; conditions: Finegoldia magna, KY017; 10^6 cells/ml; Gram +; read-out: MIC
[13] = tested on: Staphylococcus aureus 209 P; test: as above; format: cell-based; conditions: Staphylococcus aureus, 209P; 10^6 cells/ml; Gram +; read-out: MIC
[14] = tested on: Clostridium difficile I-E; test: as above; format: cell-based; conditions: Clostridioides difficile; 10^6 cells/ml; Gram +
[15] = tested on: Salmonella enteritidis IID 604; test: as above; format: cell-based; conditions: Salmonella enterica; 10^6 cells/ml; Gram -; read-out: MIC
S. pneumoniae IID 552 = test: as above; format: cell-based; conditions: Streptococcus pneumoniae, IID552; 10^6 cells/ml; Gram +; read-out: MIC
[16] = tested on: S. aureus IID 670 (Terajima); test: as above; format: cell-based, Staphylococcus aureus; conditions: Staphylococcus aureus, IID670; 10^6 cells/ml; Gram +; read-out: MIC
B. distasonis 8503 = test: as above; format: cell-based; conditions: Parabacteroides distasonis, 8503; 10^6 cells/ml; Gram -; read-out: MIC
[17] = 10^6 cells/ml, Gram -, read-out: MIC
[18] = ML4707, 10^6 cells/ml, Gram -, Table 1

SMILES | MIC (B. fragilis 0558) [µg/mL] | MIC (K. pneumoniae 1-220S) [µg/mL] | MIC (P. aeruginosa IFO 12689) [µg/mL] | MIC (P. aeruginosa IID 1210) [µg/mL] | MIC [2] [µg/mL] | MIC (S. aureus Smith) [µg/mL] | MIC (E. coli ML 4707; [18]) [µg/mL] | MIC [3] [µg/mL] | MIC [4] [µg/mL] | MIC (B. fragilis 25285) [µg/mL] | MIC [5] [µg/mL] | MIC (E. faecalis IID 682) [µg/mL] | MIC (F. necrophorum S-45) [µg/mL] | MIC [6] [µg/mL] | MIC (Pst. micros UPI 5464-1) [µg/mL] | MIC [7] [µg/mL] | MIC [8] [µg/mL] | MIC [9] [µg/mL] | MIC (E. coli ATCC 10536) [µg/mL] | MIC [10] [µg/mL] | further results
C[C@H]1CN(c2c(F)cc3c(=O)c(C(=O)O)cn4c3c2OC[C@@H]4C)C[C@H]1N.Cl (mixture of isomers) [Example 31, (3S)-10-(cis-3-Amino-4-methyl-1-pyrrolidinyl)-9-fluoro-2,3-dihydro-3-methyl-7-oxo-7H-pyrido[1,2,3-de][1,4]benzoxazine-6-carboxylic acid hydrochloride] | 0.78 | 0.1 | 0.78 | 3.13 | 0.1 | 0.2 | 0.025 | 0.39 | 0.39 | 0.78 | 0.39 | 0.2 | 0.39 | 0.2 | 0.2 | 0.1 | 0.39 | 0.2 | 0.025 | 0.2 | MIC [1, 17]: 0.05 µg/mL; MIC (P. cepacia GIFU 518; [17]): 1.56 µg/mL; MIC (C. perfringens KYA 13123): 0.2 µg/mL; MIC [11]: 3.13 µg/mL; MIC (S. pyogenes IID 692): 0.2 µg/mL; MIC [12]: 0.2 µg/mL; MIC [13]: 0.2 µg/mL; MIC [14]: 3.13 µg/mL; MIC [15]: 0.1 µg/mL; MIC (S. pneumoniae IID 552): 0.2 µg/mL; MIC [16]: 0.2 µg/mL
C[C@H]1CN(c2c(F)cc3c(=O)c(C(=O)O)cn(C4CC4)c3c2Cl)C[C@H]1N (relative stereo) [Example 16, 7-(cis-3-Amino-4-methyl-1-pyrrolidinyl)-8-chloro-1-cyclopropyl-6-fluoro-1,4-dihydro-4-oxo-3-quinolinecarboxylic acid] | 0.05 (≈ 0.132 µM) | 0.05 (≈ 0.132 µM) | 0.39 (≈ 1.03 µM) | 0.39 (≈ 1.03 µM) | 0.05 (≈ 0.132 µM) | 0.025 (≈ 0.0658 µM) | 0.0063 (≈ 0.0166 µM) | 0.1 (≈ 0.263 µM) | 0.05 (≈ 0.132 µM) | 0.05 (≈ 0.132 µM) | 0.1 (≈ 0.263 µM) | 0.1 (≈ 0.263 µM) | 0.05 (≈ 0.132 µM) | 0.05 (≈ 0.132 µM) | 0.1 (≈ 0.263 µM) | 0.05 (≈ 0.132 µM) | 0.1 (≈ 0.263 µM) | 0.1 (≈ 0.263 µM) | 0.0125 (≈ 0.0329 µM) | 0.1 (≈ 0.263 µM) | MIC [1, 17]: 0.025 µg/mL (≈ 0.0658 µM); MIC (P. cepacia GIFU 518): 0.39 µg/mL (≈ 1.03 µM); MIC (B. distasonis 8503): 0.2 µg/mL (≈ 0.527 µM); MIC (E. coli ML 4707; ML4707, Table 2, strain of the mouse infection): 0.0125 µg/mL (≈ 0.0329 µM); MIC (C. perfringens KYA 13123): 0.05 µg/mL (≈ 0.132 µM); MIC [11]: 0.1 µg/mL (≈ 0.263 µM); MIC (S. pyogenes IID 692): 0.1 µg/mL (≈ 0.263 µM); MIC [12]: 0.05 µg/mL (≈ 0.132 µM); MIC [13]: 0.05 µg/mL (≈ 0.132 µM); MIC [14]: 0.39 µg/mL; MIC [15]: 0.025 µg/mL (≈ 0.0658 µM); MIC (S. pneumoniae IID 552): 0.1 µg/mL (≈ 0.263 µM); MIC [16]: 0.05 µg/mL (≈ 0.132 µM)
C[C@@H]1CN(c2c(F)cc3c(=O)c(C(=O)O)cn(C4CC4)c3c2F)C[C@H]1N (relative stereo) [Example 18, 7-(trans-3-Amino-4-methyl-1-pyrrolidinyl)-1-cyclopropyl-6,8-difluoro-1,4-dihydro-4-oxo-3-quinolinecarboxylic acid] | 0.2 (≈ 0.55 µM) | 0.025 (≈ 0.0688 µM) | 0.39 (≈ 1.07 µM) | 0.78 (≈ 2.15 µM) | 0.05 (≈ 0.138 µM) | 0.05 (≈ 0.138 µM) | 0.0063 (≈ 0.0173 µM) | 0.2 (≈ 0.55 µM) | 0.1 (≈ 0.275 µM) | 0.2 (≈ 0.55 µM) | 0.1 (≈ 0.275 µM) | 0.1 (≈ 0.275 µM) | 0.2 (≈ 0.55 µM) | 0.05 (≈ 0.138 µM) | 0.1 (≈ 0.275 µM) | 0.05 (≈ 0.138 µM) | 0.2 (≈ 0.55 µM) | 0.05 (≈ 0.138 µM) | 0.05 (≈ 0.138 µM) | 0.1 (≈ 0.275 µM) | MIC [1]: 0.0125 µg/mL (≈ 0.0344 µM); MIC (P. cepacia GIFU 518): 0.1 µg/mL (≈ 0.275 µM); MIC (B. distasonis 8503): 0.39 µg/mL (≈ 1.07 µM); MIC (C. perfringens KYA 13123): 0.1 µg/mL (≈ 0.275 µM); MIC [11]: 0.39 µg/mL (≈ 1.07 µM); MIC (S. pyogenes IID 692): 0.1 µg/mL (≈ 0.275 µM); MIC [12]: 0.05 µg/mL (≈ 0.138 µM); MIC [13]: 0.05 µg/mL (≈ 0.138 µM); MIC [14]: 1.56 µg/mL; MIC [15]: 0.025 µg/mL (≈ 0.0688 µM); MIC (S. pneumoniae IID 552): 0.05 µg/mL (≈ 0.138 µM); MIC [16]: 0.2 µg/mL (≈ 0.55 µM)
C[C@H]1CN(c2c(F)cc3c(=O)c(C(=O)O)cn(C4CC4)c3c2F)C[C@H]1N.Cl (relative stereo) [Example 20, 7-(cis-3-Amino-4-methyl-1-pyrrolidinyl)-1-cyclopropyl-6,8-difluoro-1,4-dihydro-4-oxo-3-quinolinecarboxylic acid hydrochloride] | 0.39 | 0.05 | 0.39 | 0.78 | 0.05 | 0.05 | 0.025 | 0.39 | 0.2 | 0.39 | 0.39 | 0.2 | 0.39 | 0.05 | 0.2 | 0.05 | 0.39 | 0.2 | 0.025 | 0.2 | MIC [1, 17]: 0.025 µg/mL; MIC (P. cepacia GIFU 518; [17]): 0.39 µg/mL; MIC (B. distasonis 8503): 0.78 µg/mL; MIC (C. perfringens KYA 13123): 0.2 µg/mL; MIC [11]: 0.78 µg/mL; MIC (S. pyogenes IID 692): 0.39 µg/mL; MIC [12]: 0.2 µg/mL; MIC [13]: 0.05 µg/mL; MIC [14]: 1.56 µg/mL; MIC [15]: 0.05 µg/mL; MIC (S. pneumoniae IID 552): 0.2 µg/mL; MIC [16]: 0.05 µg/mL
CC1COc2c(N3C[C@@H](N)[C@@H](C)C3)c(F)cc3c(=O)c(C(=O)O)cn1c23.Cl (relative stereo) [Example 29, 10-(cis-3-Amino-4-methyl-1-pyrrolidinyl)-9-fluoro-2,3-dihydro-3-methyl-7-oxo-7H-pyrido[1,2,3-de][1,4]benzoxazine-6-carboxylic acid hydrochloride] | 1.56 | 0.2 | 1.56 | 6.25 | 0.2 | 0.2 | 0.05 | 0.78 | 0.78 | 1.56 | 1.56 | 0.39 | 0.78 | 0.2 | 0.39 | 0.2 | 1.56 | 0.39 | 0.05 | 0.39 | MIC [1, 17]: 0.1 µg/mL; MIC (P. cepacia GIFU 518; [17]): 1.56 µg/mL; MIC (C. perfringens KYA 13123): 0.39 µg/mL; MIC [11]: 6.25 µg/mL; MIC (S. pyogenes IID 692): 0.39 µg/mL; MIC [12]: 0.78 µg/mL; MIC [13]: 0.2 µg/mL; MIC [14]: 6.25 µg/mL; MIC [15]: 0.1 µg/mL; MIC (S. pneumoniae IID 552): 0.39 µg/mL; MIC [16]: 0.39 µg/mL
